Assay [1] has as its system Respiratory syncytial virus recombinant with luciferase (RSV-Luc5) in HEp-2 cells. Put plainly: HEp-2 RSV-Luc5 384-well Assay (EC50 RSVFLUC Hep2-384 v2, Ex. V). Format: cell-based. The note with it: human respiratory syncytial virus, HEp-2, 72 h, read-out: EC50 RSV FLuc Hep-2 384 V2 (per Ex. V). The text has this:
Example V: HEp-2 RSV-Luc5 384-well Assay (EC50 RSVFLUC Hep2-384 v2)
HEp-2 cell line was purchased from ATCC (Manassas, VA Cat #CCL-23) and maintained in Dulbecco's […] (DMEM) (Corning, New York, NY, Cat #15-018CM) supplemented with 10% fetal bovine serum (FBS) (Hyclone, Logan, UT, Cat #SH30071-03) and 1× Penicillin-Streptonycin-L-Glutamine (Corning, New York, NY, Cat #30-009-CI). Cells were passaged 2 times per week to maintain sub-confluent densities and were used for experiments at passage 5-20. Respiratory syncytial virus recombinant with luciferase (RSV-Luc5) (≥1 ×107 TCID50/ml) was purchased from Microbiologics (Saint Cloud, MN). Viral replication was determined in HEp-2 cells in the following manner.
Compounds are prepared in 100% DMSO in 384-well polypropylene plates (Greiner, Monroe, NC, Cat #784201) with 8 compounds per plate in grouped replicates of 4 at 10 serially diluted concentrations (1:3). The serially diluted compounds were transferred to low dead volume Echo plates (Labcyte, Sunnyvale, CA, Cat #LP-0200).
The test compounds were spotted to 384-well assay plates (Greiner, Monroe, NC, Cat#781091) at 200 nL per well. HEp-2 cells were harvested and suspended in DMEM (supplemented with 10% FBS and 1× Penicillin-Streptonycin-L-Glutamine) and seeded to the pre-spotted assay plates at 4,000 cells per well in 30 μL. RSV-Luc5 viruses were diluted in DMEM (supplemented with 10% FBS and 1× Penicillin-Streptomycin-L-Glutamine) at 200,000 Infectious Units (IU) per mL and 10 μL per well was added to the assay plates containing cells and compounds, for an MOI=0.5. The assay plates were incubated for 3 days at 37° C. and 5% CO2. At the end of incubation, One-Glo reagent (Promega, Madison, WI, Cat #E6120) was prepared. The assay plates and One-Glo reagent were equilibrated to room temperature for at least 15 minutes. 40 μL per well of One-Glo reagent was added and the plates were incubated at room temp for 15 minutes before reading the luminescence signal on an EnVision multimode plate reader (Perkin Elmer, Waltham, MA). Remdesivir was used as positive control and DMSO was used as negative control. Values were normalized to the positive and negative controls (as 0% and 100% replication, respectively) and data was fitted using non-linear regression analysis by Gilead's dose response tool. The EC50 value for each compound was then determined as the concentration reducing the viral replication by 50%.

The test system of assay [2] is Human Rhinovirus 16 (HRV16) in H1-HeLa cells. The experiment in a line: H1-HeLa HRV-CTG 384-well Assay (Ex. Y), HRV16. Format: cell-based. The conditions noted are these: Rhinovirus A, 96 h, read-out: EC50 H1-HeLa_HRV16_HRV-CTG 384-well Assay (per Ex. Y). The text has this: Example Y: H1-HeLa HRV-CTG 384-well Assay
H1-Hela cell line (ATCC, Manassas, VA, Cat #CRL-1958) was maintained in Dulbecco's […] (DMEM) (Corning, New York, NY, Cat #15-018CM) supplemented with 10% fetal bovine serum (FBS) (Hyclone, Logan, UT, Cat #SH30071-03), and 1× Penicillin-Streptomycin-L-Glutamine (Corning, New York, NY, Cat #30-009-CI). Cells were passaged 2 times per week to maintain sub-confluent densities and were used for experiments at passage 5-30. The Human Rhinovirus 1B (HRV1B) (ATCC, Manassas, VA, Cat #VR-1645) , Human Rhinovirus 14 (HRV14) (ATCC, Manassas, VA, Cat #VR-284), and Human Rhinovirus 16 (HRV16) (ATCC, Manassas, VA, Cat #BR-283) was obtained through ATCC. Viral infection was monitored by determining viability of H1-HeLa cells as described below.
Test molecules are prepared in 100% DMSO in 384-well polypropylene plates (Greiner, Monroe, NC, Cat #784201) with 8 compounds per plate in grouped replicates of 4 at 10 serially diluted concentrations (1:3). The serially diluted compounds were transferred to low dead volume Echo plates (Labcyte, Sunnyvale, CA, Cat #LP-0200).
The test compounds were spotted to 384-well assay plates (Greiner, Monroe, NC, Cat#781091) at 200 nL per well using an Echo acoustic dispenser (Labcyte, Sunnyvale, CA). H1-HeLa cells were harvested and suspended in DMEM (supplemented with 2% FBS and 1× Penicillin-Streptomycin-L-Glutamine) and seeded to the pre-spotted assay plates at 5,000 cells per well in 30 μL. HRV1B, HRV14, and HRV16 was diluted in DMEM (supplemented with 2% FBS and 1× Penicillin-Streptomycin-L-Glutamine) at 97.1 million Infectious Units (IU) per mL, 151 million IU per mL and 221 million IU per mL respectively. 10 μL of virus per well was added to the assay plates containing cells and compounds, for an MOI of 0.5, 1.0, and 0.25 respectively. The assay plates were incubated for 4 days at 37° C. and 5% CO2. At the end of incubation, Celltiter-Glo (Promega, Madison, WI, Cat #(Ga7573) was prepared. The assay plates and Celltiter-Glo reagent were equilibrated to room temperature for at least 15 minutes. 40 μL per well of Celltiter-Glo reagent was added and the plates were incubated at room temperature for 15 minutes before reading the luminescence signal on an EnVision multimode plate reader (Perkin Elmer, Waltham, MA). Rupintrivir was used as positive control and DMSO was used as negative control. Values were normalized to the positive and negative controls (as 0% and 100% replication, respectively) and data was fitted using non-linear regression analysis by Gilead's dose response tool. The EC50 value for each compound was defined as the concentration reducing viral replication by 50%.

Where [3] appears, read: H1-HeLa cells, HRV16 MOI 0.25, 4 days, Celltiter-Glo.

Read-outs that look alike come from different tables or passages of the source.

`N#C[C@]1(COC(=O)c2ccccc2)O[C@@H](c2ccc3c(N)ncnn23)[C@H](O)[C@@H]1O` [Compound 2, ((2R,3S,4R,5S)-5-(4-aminopyrrolo[2,1-f][1,2,4]triazin-7-yl)-2-cyano-3,4-dihydroxytetrahydrofuran-2-yl)methyl benzoate]: the EC50 in assay [1] is 36.8 µM; in assay [2] (setting [3]), 28.3 µM.

`CC(C)[C@H](N)C(=O)OC[C@@]1(C#N)O[C@@H](c2ccc3c(N)ncnn23)[C@H](O)[C@@H]1O` [Compound 12, ((2R,3S,4R,5S)-5-(4-aminopyrrolo[2,1-f][1,2,4]triazin-7-yl)-2-cyano-3,4-dihydroxytetrahydrofuran-2-yl)methyl L-valinate]: the 50% effective concentration (EC50) in assay [1] came to 19.2 µM; in assay [2] (setting [3]), 8.82 µM.

Take `CC(=O)OC[C@@]1(C#N)O[C@@H](c2ccc3c(N)ncnn23)[C@H](OC(C)=O)[C@@H]1OC(C)=O` [Compound 28, (2R,3S,4S,5S)-2-(acetoxymethyl)-5-(4-aminopyrrolo[2,1-f][1,2,4]triazin-7-yl)-2-cyanotetrahydrofuran-3,4-diyl diacetate]: the EC50 was 15.9 µM in assay [1] and 23.9 µM in assay [2] (setting [3]).

In the case of `CC(C)(C)CC(=O)Nc1ncnn2c([C@@H]3O[C@](C#N)(COC(=O)CC(C)(C)C)[C@@H](O)[C@H]3O)ccc12` [Compound 26, ((2R,3S,4R,5S)-2-cyano-5-(4-(3,3-dimethylbutanamido)pyrrolo[2,1-f][1,2,4]triazin-7-yl)-3,4-dihydroxytetrahydrofuran-2-yl)methyl 3,3-dimethylbutanoate], the EC50 was found to be 46.8 µM in assay [1] and 50 µM in assay [2] (setting [3]).

For `CC(C)C(=O)OC[C@@]1(C#N)O[C@@H](c2ccc3c(N)ncnn23)[C@H](OC(=O)C(C)C)[C@@H]1OC(=O)C(C)C` [Compound 20, (2R,3S,4S,5S)-5-(4-aminopyrrolo[2,1-f][1,2,4]triazin-7-yl)-2-cyano-2-((isobutyryloxy)methyl)tetrahydrofuran-3,4-diyl bis(2-methylpropanoate)], the results for the EC50 in assay [1] and in assay [2] (setting [3]) were 29.9 µM and 50 µM, respectively.

Regarding `N#C[C@]1(COC(=O)CC2CCC2)O[C@@H](c2ccc3c(N)ncnn23)[C@H](O)[C@@H]1O` [Compound 16, ((2R,3S,4R,5S)-5-(4-aminopyrrolo[2,1-f][1,2,4]triazin-7-yl)-2-cyano-3,4-dihydroxytetrahydrofuran-2-yl)methyl 2-cyclobutylacetate], the concentration for a half-maximal effect (EC50) in assay [1] worked out at 18.3 µM; in assay [2] (setting [3]), 7.15 µM.

For the molecule `N#C[C@]1(COC(=O)Cc2ccccc2)O[C@@H](c2ccc3c(N)ncnn23)[C@H](O)[C@@H]1O` [Compound 38, ((2R,3S,4R,5S)-5-(4-aminopyrrolo[2,1-f][1,2,4]triazin-7-yl)-2-cyano-3,4-dihydroxytetrahydrofuran-2-yl)methyl 2-phenylacetate], the EC50 in assay [1] was 18.9 µM; in assay [2] (HRV16, H1-HeLa) it was 8.44 µM.

`CCC(=O)OC[C@@]1(C#N)O[C@@H](c2ccc3c(N)ncnn23)[C@H](O)[C@@H]1O` [Compound 5, ((2R,3S,4R,5S)-5-(4-aminopyrrolo[2,1-f][1,2,4]triazin-7-yl)-2-cyano-3,4-dihydroxytetrahydrofuran-2-yl)methyl propionate]: the figures for the EC50 in assay [1] and in assay [2] (setting [3]) were 20 µM and 9.84 µM, respectively.

As to `Cc1ccc(C(=O)OC[C@@]2(C#N)O[C@@H](c3ccc4c(N)ncnn34)[C@H](O)[C@@H]2O)cc1` [Compound 14, ((2R,3S,4R,5S)-5-(4-aminopyrrolo[2,1-f][1,2,4]triazin-7-yl)-2-cyano-3,4-dihydroxytetrahydrofuran-2-yl)methyl 4-methylbenzoate], the half-maximal effective concentration (EC50) turned out to be 22 µM in assay [1] and 23.8 µM in assay [2] (setting [3]).

As to `N#C[C@]1(COC(=O)C2CC3(CCC3)C2)O[C@@H](c2ccc3c(N)ncnn23)[C@H](O)[C@@H]1O` [Compound 32, ((2R,3S,4R,5S)-5-(4-aminopyrrolo[2,1-f][1,2,4]triazin-7-yl)-2-cyano-3,4-dihydroxytetrahydrofuran-2-yl)methyl spiro[3.3]heptane-2-carboxylate], the EC50 in assay [1] was 16.4 µM; in assay [2] (setting [3]), 4.56 µM.

Take `N#C[C@]1(COC(=O)C2CCCC2)O[C@@H](c2ccc3c(N)ncnn23)[C@H](O)[C@@H]1O` [Compound 18, ((2R,3S,4R,5S)-5-(4-aminopyrrolo[2,1-f][1,2,4]triazin-7-yl)-2-cyano-3,4-dihydroxytetrahydrofuran-2-yl)methyl cyclopentanecarboxylate]: the results for the EC50 in assay [1] and in assay [2] (setting [3]) were 23.3 µM and 8.01 µM, respectively.

For `N#C[C@]1(COC(=O)[C@H]2CCC(=O)O2)O[C@@H](c2ccc3c(N)ncnn23)[C@H](O)[C@@H]1O` [Compound 25, ((2R,3S,4R,5S)-5-(4-aminopyrrolo[2,1-f][1,2,4]triazin-7-yl)-2-cyano-3,4-dihydroxytetrahydrofuran-2-yl)methyl (R)-5-oxotetrahydrofuran-2-carboxylate], the EC50 in assay [1] is 10.3 µM; in assay [2] (setting [3]), 8.31 µM.

Consider `CCC(C)(C)CC(=O)OC[C@@]1(C#N)O[C@@H](c2ccc3c(N)ncnn23)[C@H](O)[C@@H]1O` [Compound 27, ((2R,3S,4R,5S)-5-(4-aminopyrrolo[2,1-f][1,2,4]triazin-7-yl)-2-cyano-3,4-dihydroxytetrahydrofuran-2-yl)methyl 3,3-dimethylpentanoate], for which the 50% effective concentration (EC50) in assay [1] came to 12.3 µM; in assay [2] (setting [3]), 50 µM.

For the molecule `CCC(CC)C(=O)OC[C@@]1(C#N)O[C@@H](c2ccc3c(N)ncnn23)[C@H](O)[C@@H]1O` [Compound 9, ((2R,3S,4R,5S)-5-(4-aminopyrrolo[2,1-f][1,2,4]triazin-7-yl)-2-cyano-3,4-dihydroxytetrahydrofuran-2-yl)methyl 2-ethylbutanoate], the EC50 was 28.9 µM in assay [1] and 35.1 µM in assay [2] (setting [3]).

Consider `N#C[C@]1(COC(=O)C2CCC2)O[C@@H](c2ccc3c(N)ncnn23)[C@H](O)[C@@H]1O` [Compound 8, ((2R,3S,4R,5S)-5-(4-aminopyrrolo[2,1-f][1,2,4]triazin-7-yl)-2-cyano-3,4-dihydroxytetrahydrofuran-2-yl)methyl cyclobutanecarboxylate], for which the EC50 was found to be 14.9 µM in assay [1] and 7.74 µM in assay [2] (setting [3]).

As usually defined, the EC50 is the concentration at which the effect is half-maximal.

Values taken from patent publication US20240199676A1, “ANTIVIRAL COMPOUNDS AND METHODS OF MAKING AND USING THE SAME” (Gilead Sciences, Inc., priority 2022, published 2024).
